One test relates to MDA-MB-231. The test is described as follows: MTT cell viability assay, MDA-MB-231 cells. Particulars: Homo sapiens, 48 h drug exposure. The test is classed as cell-based, human. Summed up: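 MDA-MB-231 cells seeded in FBS-supplemented medium, treated after 24 h with compound (10 to 0,01 µM; vehicle 0.05% DMSO) for 48 h at 37 °C. MTT (0.3 mg/ml) added for 2-4 h, formazan dissolved in DMSO, OD read at 595 nm. IC50 from non-linear regression of log concentration vs normalized response.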

For another test, the system named is DU-145. The test can be described thus: MTT cell viability assay, DU-145 cells. The test is classed as cell-based. Particulars: Homo sapiens, 48 h drug exposure.
The target in test [1] is T1, PRDX1 (Homo sapiens, UniProt Q06830).
T1 construct: treatment of untreated MDA-MB-231 cell lysates with a resin coupled to compound 24; endogenous in cells; host or cells: MDA-MB-231 (ATCC HTB-26)
T1 sequence (Q06830 1-199): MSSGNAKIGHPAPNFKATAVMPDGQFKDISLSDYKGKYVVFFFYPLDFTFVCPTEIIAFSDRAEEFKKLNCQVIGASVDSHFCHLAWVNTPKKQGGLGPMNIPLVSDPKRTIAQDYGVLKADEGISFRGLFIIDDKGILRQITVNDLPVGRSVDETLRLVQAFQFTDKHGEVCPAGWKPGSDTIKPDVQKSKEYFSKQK
The test is described as follows: Western blot of monomeric/dimeric and oxidized forms of PRDX1 in treated cells. The test is classed as cell-based. Particulars: 1 µM, MDA-MB-231 cells. The method, then:
To that end, compound 24 1 µM was added to MDA-MB-231 cells and followed by Western Blot analysis. β-actin was used as control.
Non-reducing and reducing conditions used are those commonly used to assess the status of PRDX1 (see ref. 34 and 35) ref. 35

A further test has as its system PANC-1. The test can be described thus: MTT cell viability assay, PANC-1 cells. Particulars: Homo sapiens, 48 h drug exposure. The test is classed as cell-based.
For test [2], the target named is T1, PRDX1. The test can be described thus: Competitive immunoprecipitation / immunoblot for PRDX1 with compound-coupled resin. The test is classed as binding. Particulars: untreated MDA-MB-231 cell lysates; not trapped from lysates pre-treated with unbound compound. The text has this: As indicated in the brief description of the figures, the treatment of untreated MDA-MB-231 cell lysates with a resin coupled to compound 24 (24-coupled resin) were subjected to immunoprecipitation analysis for PRDX1 [for the methodology to perform immunoprecipitation and western blot analysis of PRDXs see Am J Physiol Heart Circ Physiol. 2008 Jul; 295(1): H425-H433 (ref. 34); and Oncogene. 2013 November 7; 32(45): 5302-5314 (ref. 35)].

A further test concerns K562. The test is described as follows: MTT cell viability assay, K562 cells. Particulars: Homo sapiens, 48 h drug exposure. Type of test: cell-based. Summed up: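 Human CML-derived K562 cells seeded at 1000-5000/well with 10% FBS, treated after 24 h with compound (10 to 0,01 µM) or 0.05% DMSO vehicle for 48 h. MTT (0.3 mg/ml) added 2-4 h at 37 °C, formazan dissolved in DMSO, OD 595 nm; IC50 from non-linear regression, 3 replicates.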

The test system of a further test is HEL 92.1.7. The test can be described thus: MTT cell viability assay, HEL cells. The test is classed as cell-based. Particulars: Homo sapiens, 48 h drug exposure. Summed up: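 Human erythroleukemia HEL 92.1.7 cells, 1000-5000 cells/well in 10% FBS medium, treated 24 h after seeding with compound (10 to 0,01microM) or 0.05% DMSO for 48 h. MTT (0.3 mg/ml) 2-4h at 37 °C, OD 595 nm; IC50 by non-linear regression of log concentration vs normalized response, 3 replicates.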

The subject of test [3] is JNK, p38, AKT, ERK1/2, STAT3. The test can be described thus: Immunoblot of phosphorylated MAPKs, STAT3 and Akt in treated TNBC cells. The test is classed as cell-based, human. Particulars: MDA-MB-231 5 µM, 1 h, BT-549 1 µM, 3 h. The method, then:
MDA-MB-231 cells were incubated with compound 24 (5 µM, 1 h), then washed with cold PBS-vanadate (1 mM). The same process was done with BT-549 cells with the exception that the cells were incubated with compound 24 at 1 µM of 3 h. PRDX1 knockdown cells, or compound 24 treated cells, were then lysed with cold RIPA containing protease and phosphatase inhibitors or with a buffer containing 20 mM Tris-HCI, pH = 7, 140 mM NaCl, 50 mM EDTA, 10% glycerol, 1% NP-40, and protease and phosphatase inhibitors. Lysates were centrifuged at 20,000 × g, at 4 °C for 10 min, and supernatants were collected. Protein concentration of lysis extracts was measured by BCA. Electrophoresis sample buffer containing 10% β-mercaptoethanol was added to 60 µg of extracts. In the case of non-reducing electrophoresis, cells were incubated with cold PBS containing 25 mM NEM for 30 min before lysis, and β-mercaptoethanol was omitted in the electrophoresis sample buffer. Samples were separated by sodium dodecyl sulfate - polyacrylamide gel electrophoresis (SDS-PAGE) and transferred onto nitrocellulose or PVDF (polyvinylidene difluoride) membranes. […] Protein bands were visualized with the Immun-Star Western chemiluminescence kit (Bio-rad) using the ChemiDoc XRS System and the image analysis program Quantity One (Bio-Rad). […]

The test system of another test is MCF-7. The test can be described thus: MTT cell viability assay, MCF-7 cells. Type of test: cell-based. Particulars: Homo sapiens, MCF7, 48 h drug exposure.

For `O=C1C2=C(C(=O)c3c(O)ccc(O)c31)N(c1cccnc1)Cc1ccccc1O2` [Compound 24, 7,10-dihydroxy-12-(pyridin-3-yl)-12,13-dihydrobenzo[f]naphtho[2,3-b][1,4]oxazepine-6,11-dione], the IC50 came to 0.09 µM in the test with MDA-MB-231; 3.19 µM in the test on DU-145; 0.32 µM in the test with PANC-1; 0.1 µM with K562; 0.09 µM with HEL 92.1.7; 1.72 µM in the test on MCF-7. On PRDX1 [1] (non-reducing conditions), the “conversion of PRDX1 monomeric form into dimeric form” value was “a rapid conversion of PRDX1 from its basal active monomeric form, into its inactive dimeric form”. In addition, the “levels of hyperoxidized PRDX1 (SO2/3-Prdx)” value at PRDX1 [1] (reducing conditions) is “a significant increase in the levels of inactive hyperoxidized 2-cystiene PRDX1”. For the same molecule, at PRDX1 [2], the “trapping of PRDX1 by compound-coupled resin” value was “PRDX1 was clearly trapped by the 24-coupled resin”. In addition, the “activation of STAT3” value in [3] is “a decrease in the activation of STAT3”. Also, in [3], the “levels of activated JNK, p38, AKT and ERK1/2” value was “an increase in the levels of activated JNK, p38, AKT and ERK1/2”.

For the origin of these results see patent EP4177246A1, “FUSED OXAZEPINES AS INHIBITORS OF PEROXIREDOXINS” (Centro Atlántico del Medicamento, SA, priority 2021, dated 2023).
